From US5292733A, “Cephalosporin compounds” (Lucky Limited, priority 1991, dated 1994)
In brackets after ≈: the same amount, converted by molar mass.

How the values were obtained:
Experiment in all cases: Antibacterial activity MIC, two-fold agar dilution
Assay type in all cases: cell-based
[1] = system: Bacillus megaterium ATCC 9885; conditions: Bacillus megaterium ATCC 9885, Muller-Hinton agar, 37° C., 20 hours; for MIC: Priestia megaterium, ATCC9885, read-out: Antibacterial Activity MIC
Protocol: (§1) These MIC values were taken by employing a two-fold dilution method: that is, two-fold serial dilutions of each of the test compounds were made and dispersed in a Muller-Hinton agar medium; 2 μl of the standard test strain which had the 10^7 CFU(Colony Forming Unit) per ml was inoculated on the medium; and these were incubated at 37° C. for 20 hours. The results of the MIC tests are shown Table 1.

[2] = system: Bacillus cereus ATCC 11778; conditions: Bacillus cereus ATCC 11778, Muller-Hinton agar, 37° C., 20 hours; for MIC: ATCC11778, read-out: Antibacterial Activity MIC
Protocol: as §1

[3] = system: Acinetobacter calcoaceticus ATCC 15473; conditions: Acinetobacter calcoaceticus ATCC 15473, Muller-Hinton agar, 37° C., 20 hours; for MIC: ATCC15473, read-out: Antibacterial Activity MIC
Protocol: as §1

[4] = system: Serratia marcescens ATCC 27117; conditions: Serratia marcescens ATCC 27117, Muller-Hinton agar, 37° C., 20 hours; for MIC: ATCC27117, read-out: Antibacterial Activity MIC
Protocol: as §1

[5] = system: Shigella sonnei ATCC 11060; conditions: 37° C., 20 hours; for MIC: ATCC11060, Muller-Hinton agar
Protocol: as §1

[6] = system: Proteus vulgaris ATCC 6059; conditions: Proteus vulgaris ATCC 6059, Muller-Hinton agar, 37° C., 20 hours; for MIC: ATCC6059, read-out: Antibacterial Activity MIC
Protocol: as §1

[7] = system: Pseudomonas aeruginosa ATCC 10145; conditions: Pseudomonas aeruginosa ATCC 10145, Muller-Hinton agar, 37° C., 20 hours; for MIC: ATCC10145, read-out: Antibacterial Activity MIC
Protocol: as §1

[8] = system: Salmonella typhimurium ATCC 14028; conditions: Salmonella typhimurium ATCC 14028, Muller-Hinton agar, 37° C., 20 hours; for MIC: Salmonella enterica, read-out: Antibacterial Activity MIC
Protocol: as §1

[9] = system: Staphylococcus aureus ATCC 6538p; conditions: Staphylococcus aureus ATCC 6538p, Muller-Hinton agar, 37° C., 20 hours; for MIC: ATCC6538P, read-out: Antibacterial Activity MIC
Protocol: as §1

[10] = system: Staphylococcus epidermidis ATCC 12228; conditions: Staphylococcus epidermidis ATCC 12228, Muller-Hinton agar, 37° C., 20 hours; for MIC: ATCC12228, read-out: Antibacterial Activity MIC
Protocol: as §1

[11] = system: Citrobacter freundii ATCC 8090; conditions: Citrobacter freundii ATCC 8090, Muller-Hinton agar, 37° C., 20 hours; for MIC: ATCC8090, read-out: Antibacterial Activity MIC
Protocol: as §1

[12] = system: Shigella flexneri ATCC 11836; conditions: 37° C., 20 hours; for MIC: ATCC11836, Muller-Hinton agar
Protocol: as §1

[13] = system: Enterobacter aerogenes ATCC 29751; conditions: Enterobacter aerogenes ATCC 29751, Muller-Hinton agar, 37° C., 20 hours; for MIC: Klebsiella aerogenes, ATCC29751, read-out: Antibacterial Activity MIC
Protocol: as §1

[14] = system: Morganella morganii ATCC 8076h; conditions: Muller-Hinton agar, 37° C., 20 hours; for MIC: ATCC8076H
Protocol: as §1

[15] = system: Pseudomonas aeruginosa ATCC 25619; conditions: Pseudomonas aeruginosa ATCC 25619, Muller-Hinton agar, 37° C., 20 hours; for MIC: ATCC25619, read-out: Antibacterial Activity MIC
Protocol: as §1

[16] = system: Proteus mirabilis ATCC 25933; conditions: Proteus mirabilis ATCC 25933, Muller-Hinton agar, 37° C., 20 hours; for MIC: ATCC25933, read-out: Antibacterial Activity MIC
Protocol: as §1

[17] = system: Providencia rettgeri ATCC 9250; conditions: 37° C., 20 hours; for MIC: ATCC9250, Muller-Hinton agar
Protocol: as §1

[18] = system: Klebsiella pneumoniae ATCC 10031; conditions: Klebsiella pneumoniae ATCC 10031, Muller-Hinton agar, 37° C., 20 hours; for MIC: ATCC10031, read-out: Antibacterial Activity MIC
Protocol: as §1

[19] = system: Escherichia coli ATCC 25922; conditions: 37° C., 20 hours; for MIC: ATCC25922, Muller-Hinton agar
Protocol: as §1

[20] = system: Staphylococcus aureus ATCC 10537; conditions: Staphylococcus aureus ATCC 10537, Muller-Hinton agar, 37° C., 20 hours; for MIC: ATCC10537, read-out: Antibacterial Activity MIC
Protocol: as §1

[21] = system: Pseudomonas aeruginosa ATCC 27853; conditions: Pseudomonas aeruginosa ATCC 27853, Muller-Hinton agar, 37° C., 20 hours; for MIC: ATCC27853, read-out: Antibacterial Activity MIC
Protocol: as §1

[22] = system: Enterobacter cloacae ATCC 27508; conditions: Enterobacter cloacae ATCC 27508, Muller-Hinton agar, 37° C., 20 hours; for MIC: ATCC27508, read-out: Antibacterial Activity MIC
Protocol: as §1

[23] = system: Escherichia coli ATCC 10536; conditions: 37° C., 20 hours; for MIC: ATCC10536, Muller-Hinton agar
Protocol: as §1

[24] = system: Streptococcus faecalis ATCC 29212; conditions: Streptococcus faecalis ATCC 29212, Muller-Hinton agar, 37° C., 20 hours; for MIC: Enterococcus faecalis, ATCC29212, read-out: Antibacterial Activity MIC
Protocol: as §1

[25] = system: Micrococcus luteus ATCC 9341; conditions: Micrococcus luteus ATCC 9341, Muller-Hinton agar, 37° C., 20 hours; for MIC: ATCC9341, read-out: Antibacterial Activity MIC
Protocol: as §1

Question: How did the MIC [1] turn out when `C#CCO/N=C(\C(=O)N[C@@H]1C(=O)N2C(C(=O)[O-])=C(CSc3cc(N)[n+](CC)c(N)n3)CS[C@H]12)c1csc(N)n1` [Compound I-15, (6R,7R)-7-[(Z)-2-(2-aminothiazol-4-yl)-2-(2-propyn-1-oxyimino)acetamido]-3-(2,6-diamino-1-ethylpyrimidinium-4-yl)thiomethyl-3-cephem-4-carboxylate] was run?
Answer: 0.25 µg/mL (≈ 0.424 µM)

Question: What about the MIC [2] of the same molecule?
Answer: 32 µg/mL (≈ 54.3 µM)

Question: And the MIC [3]?
Answer: 8 µg/mL (≈ 13.6 µM)

Question: And the MIC [4]?
Answer: 0.5 µg/mL (≈ 0.848 µM)

Question: And the MIC [5]?
Answer: 0.5 µg/mL (≈ 0.848 µM)

Question: What about the MIC [6] of the same molecule?
Answer: 1 µg/mL (≈ 1.7 µM)

Question: And the MIC [7]?
Answer: 8 µg/mL (≈ 13.6 µM)

Question: And the MIC [8]?
Answer: 0.5 µg/mL (≈ 0.848 µM)

Question: And the MIC [9]?
Answer: 0.5 µg/mL (≈ 0.848 µM)

Question: And the MIC [10]?
Answer: 0.25 µg/mL (≈ 0.424 µM)

Question: What about the MIC [11] of the same molecule?
Answer: 0.25 µg/mL (≈ 0.424 µM)

Question: And the MIC [12]?
Answer: 0.13 µg/mL (≈ 0.22 µM)

Question: What about the MIC [13] of the same molecule?
Answer: 1 µg/mL (≈ 1.7 µM)

Question: What about the MIC [14] of the same molecule?
Answer: 0.016 µg/mL (≈ 0.0271 µM)

Question: What about the MIC [15] of the same molecule?
Answer: 1 µg/mL (≈ 1.7 µM)

Question: And the MIC [16]?
Answer: 0.5 µg/mL (≈ 0.848 µM)

Question: And the MIC [17]?
Answer: ≤ 0.008 µg/mL

Question: And the MIC [18]?
Answer: 0.016 µg/mL (≈ 0.0271 µM)

Question: And the MIC [19]?
Answer: 0.5 µg/mL (≈ 0.848 µM)

Question: And the MIC [20]?
Answer: 0.5 µg/mL (≈ 0.848 µM)

Question: What about the MIC [21] of the same molecule?
Answer: 4 µg/mL (≈ 6.78 µM)

Question: What about the MIC [22] of the same molecule?
Answer: 0.031 µg/mL (≈ 0.0526 µM)

Question: And the MIC [23]?
Answer: 0.25 µg/mL (≈ 0.424 µM)

Question: And the MIC [24]?
Answer: 16 µg/mL (≈ 27.1 µM)

Question: And the MIC [25]?
Answer: 0.031 µg/mL (≈ 0.0526 µM)

Question: Which results are given for “(6R,7R)-7-[(Z)-2-(2-aminothiazol-4-yl)-2-(2-propyn-1-oxyimino)acetamido]-3-(2,6-diamino-3-methylpyrimidinium-4-yl)thiomethyl-3-cephem-4-carboxylate [Compound I-9]”?
Answer: Antibacterial Activity MIC [1]: 0.13 µg/mL; Antibacterial Activity MIC [2]: 64 µg/mL; Antibacterial Activity MIC [3]: 2 µg/mL; Antibacterial Activity MIC [4]: 0.5 µg/mL; Antibacterial Activity MIC ([5]; Muller-Hinton agar): 0.13 µg/mL; Antibacterial Activity MIC [6]: 0.016 µg/mL; Antibacterial Activity MIC [7]: 16 µg/mL; Antibacterial Activity MIC [8]: 0.5 µg/mL; Antibacterial Activity MIC [9]: 0.25 µg/mL; Antibacterial Activity MIC [10]: 0.5 µg/mL; Antibacterial Activity MIC [11]: 0.13 µg/mL; Antibacterial Activity MIC ([12]; Muller-Hinton agar): 0.13 µg/mL; Antibacterial Activity MIC [13]: 0.5 µg/mL; Antibacterial Activity MIC [14]: <= 0.008 μg/ml; Antibacterial Activity MIC [15]: 2 µg/mL; Antibacterial Activity MIC [16]: 0.016 µg/mL; Antibacterial Activity MIC ([17]; Muller-Hinton agar): <= 0.008 μg/ml; Antibacterial Activity MIC [18]: 0.063 µg/mL; Antibacterial Activity MIC ([19]; Muller-Hinton agar): 0.063 µg/mL; Antibacterial Activity MIC [20]: 0.25 µg/mL; Antibacterial Activity MIC [21]: 8 µg/mL; Antibacterial Activity MIC [22]: 0.13 µg/mL; Antibacterial Activity MIC ([23]; Muller-Hinton agar): 0.016 µg/mL; Antibacterial Activity MIC [24]: > 128 µg/mL; Antibacterial Activity MIC [25]: 0.063 µg/mL

Question: `CO/N=C(\C(=O)N[C@@H]1C(=O)N2C(C(=O)O)=C(COC(C)=O)CS[C@H]12)c1csc(N)n1` [Cefotaxime, reference compound] was tested. Which MIC [1] did it give?
Answer: 0.063 µg/mL (≈ 0.138 µM)

Question: What about the MIC [2] of the same molecule?
Answer: 64 µg/mL (≈ 141 µM)

Question: And the MIC [3]?
Answer: 8 µg/mL (≈ 17.6 µM)

Question: What about the MIC [4] of the same molecule?
Answer: 0.13 µg/mL (≈ 0.285 µM)

Question: And the MIC [5]?
Answer: 0.063 µg/mL (≈ 0.138 µM)

Question: What about the MIC [6] of the same molecule?
Answer: 0.031 µg/mL (≈ 0.0681 µM)

Question: What about the MIC [7] of the same molecule?
Answer: 16 µg/mL (≈ 35.1 µM)

Question: And the MIC [8]?
Answer: 0.13 µg/mL (≈ 0.285 µM)

Question: What about the MIC [9] of the same molecule?
Answer: 4 µg/mL (≈ 8.78 µM)

Question: And the MIC [10]?
Answer: 1 µg/mL (≈ 2.2 µM)

Question: And the MIC [11]?
Answer: 0.063 µg/mL (≈ 0.138 µM)

Question: What about the MIC [12] of the same molecule?
Answer: 0.016 µg/mL (≈ 0.0351 µM)

Question: And the MIC [13]?
Answer: 2 µg/mL (≈ 4.39 µM)

Question: What about the MIC [14] of the same molecule?
Answer: ≤ 0.008 µg/mL

Question: And the MIC [15]?
Answer: 1 µg/mL (≈ 2.2 µM)

Question: What about the MIC [16] of the same molecule?
Answer: 0.031 µg/mL (≈ 0.0681 µM)

Question: And the MIC [17]?
Answer: ≤ 0.008 µg/mL

Question: And the MIC [18]?
Answer: ≤ 0.008 µg/mL

Question: What about the MIC [19] of the same molecule?
Answer: 0.031 µg/mL (≈ 0.0681 µM)

Question: And the MIC [20]?
Answer: 1 µg/mL (≈ 2.2 µM)

Question: And the MIC [21]?
Answer: 8 µg/mL (≈ 17.6 µM)

Question: And the MIC [22]?
Answer: ≤ 0.008 µg/mL

Question: What about the MIC [23] of the same molecule?
Answer: 0.031 µg/mL (≈ 0.0681 µM)

Question: What about the MIC [24] of the same molecule?
Answer: > 128 µg/mL

Question: What about the MIC [25] of the same molecule?
Answer: 0.031 µg/mL (≈ 0.0681 µM)
